{
  "source": "patent US20060106028A1",
  "about": "“Polycyclic aromatics and derivatives thereof and processes for their preparation” (priority 2004, published 2006)",
  "key": {"1218L (Bladder)": {"tested_on": "1218L (Bladder)", "test": "In vitro cytotoxic activity, 36 tumor cell lines panel", "format": "cell-based", "settings": "96 hours", "method": "(§1) Culture conditions and activity evaluations of Compound 1 against 36 cancer cell lines were done as described below. Results were expressed as the concentration of drug which inhibits 50% of the cell growth (IC50, calculated using the formula: [Ti/C]×100=−50).\n(§2) The compound was dissolved at 10 mM in DMSO. Dilution in vehicle to concentrations of 30, 10, 3, 1 and 0.3 μM were prepared immediately before assays. Depending on the cell line's growth characteristics, 4000-10000 cells were plated in two 96-wells pates (day 0) and incubated for 16 hours. The following day, propidium iodide was added to one of the two plates. Test compound was added to the second plate, as well as vehicle control, and cells further incubated for 96 hours. The compound was tested at each concentration and in triplicates. The equivalent cell number was determined after adding propidium iodide by measuring the signal by fluorescence (Ti for test article, C for control)."}, "T24 (Bladder)": {"tested_on": "T24 (Bladder)", "test": "In vitro cytotoxic activity, 36 tumor cell lines panel", "format": "cell-based", "settings": "96 hours", "method": "as §1, §2"}, "1752L (Pleuramesot.)": {"tested_on": "1752L (Pleuramesot.)", "test": "In vitro cytotoxic activity, 36 tumor cell lines panel", "format": "cell-based", "settings": "96 hours", "method": "as §1, §2"}, "462NL (Melanoma)": {"tested_on": "462NL (Melanoma)", "test": "In vitro cytotoxic activity, 36 tumor cell lines panel", "format": "cell-based", "settings": "96 hours", "method": "as §1, §2"}, "394NL (Melanoma)": {"tested_on": "394NL (Melanoma)", "test": "In vitro cytotoxic activity, 36 tumor cell lines panel", "format": "cell-based", "settings": "96 hours", "method": "as §1, §2"}, "[1]": {"tested_on": "Streptococcus pneumoniae PenR (LSPQ 3349)", "test": "Antibacterial activity, MIC (NCCLS M7-A5)", "format": "cell-based", "settings": "MH medium +2% lysed horse blood"}, "[2]": {"tested_on": "Staphylococcus aureus (Smith strain, ATCC™ 13709)", "test": "In vivo antimicrobial efficacy in infected ICR mice", "settings": "ip, ICR mice infected i.p., compound i.p. one hour post infection in 1% SDS, mortality recorded for 7 days, read-out: median effective dose (ED50)", "method": "In vivo efficacy studies were performed on ICR mice (supplied by Charles River Laboratories, Wilmington, Mass.) having a bodyweight of 20±2 g. Mice (38) were inoculated i.p. with an LD90-100 dose (1×10^6 CFU/mouse) of Staphylococcus aureus (Smith strain, ATCC™ 13709) suspended in 0.5 mL of BHI containing 5% mucin. Compound 1 at doses 0.1, 0.5, 1 and 5 mg/kg (formulated in 1% SDS for a total volume of 5 μL/g of weight) was administered i.p. one hour post infection (5 mice for each concentration). Another group of 5 mice was treated i.v. with a 10 mg/kg dose of Vancomycin. Finally, a group of 3 mice was administered vehicle only. Mortality was recorded for 7 days."}, "[3]": {"tested_on": "PC-3 (prostate adenocarcinoma)", "test": "In vitro tumor growth inhibition (GI50, propidium iodide)", "format": "cell-based", "settings": "96 hrs"}, "[4]": {"tested_on": "Clostridium difficile (ATCC™ 9689)", "test": "Antibacterial activity, MIC (NCCLS M11-A5, anaerobic)", "format": "cell-based", "settings": "Clostridioides difficile; Brucella medium with hemin, vitamin K1 and 5% lysed horse blood; read-out: MIC", "method": "Antibacterial activity of Compounds 1 and 2 (Table 7) was measured by determining the minimal inhibitory concentration (MIC) necessary to obtain a complete inhibition of bacteria growth in seven indicator strains, namely Staphylococcus aureus (ATCC™ 6538P), Staphylococcus aureus MRS3 (ATCC™ 700699), Enterococcus faecalis VRE-1 (ATCC™ 29212), Enterococcus faecalis VRE-2 (ATCC™ 51299), Escherichia coli (ATCC™ 25922), Streptococcus pneumoniae (LSPQ 3412) and Streptococcus pneumoniae PenR (LSPQ 3349). Indicator strains preparation and MIC determination were performed according to the National Committee for Clinical Laboratory Standards (NCCLS) guideline M7-A5 Methods for Dilution Antimicrobial Susceptibility Tests for Bacteria That Grow Aerobically; Approved Standard-Fifth Edition. (NCCLS document M7-A5, ISBN 1-56238-394-9; NCCLS, 940 West Valley Road, Suite 1400, Wayne, Pa. 19087-1898 USA), the content of which is incorporated herein by reference. MIC determination against C. difficile was performed according to National Committee for Clinical Laboratory Standards (NCCLS) guideline M11-A5 Methods for Antimicrobial Susceptibility Testing of Anaerobic Bacteria.\nCompounds 1 and 2 were prepared as 100× stock solutions in DMSO, with concentrations ranging from 3.2 mg/mL to 0.003 mg/mL (a two-fold dilution series over 11 points). An aliquot of each 100× stock solution was diluted 50-fold in test medium described below to give a set of eleven (11) 2× solutions. 50 μL of each of the eleven 2× solutions was aliquoted into the corresponding well of a 12-well row, with the final well reserved for medium alone control.\nVancomycin (Sigma™), used as positive control compound, was prepared as 2× stock solutions in Mueller-Hinton test medium ranging from 64 μg/mL to 0.06 μg/ml (a two-fold dilution series over 11 points). An aliquot of 50 μL corresponding to each concentration (at 2×) was then transferred to 96-well microplates to obtain a series of eleven two-fold dilutions.\nAn isolated colony of each of the indicator strains was used to inoculate tubes containing 2 mL of test medium. […]"}, "[5]": {"test": "In vivo pharmacokinetic profile (plasma levels)", "set-up": "species or system CD-1 mice", "settings": "CD-1, mouse, 25 mg/kg single dose, CD1 female mice", "method": "Pharmacokinetic profile of Compound 1 was determined in CD-1 mice (FIG. 1). CD1 female mice (6 weeks of age) received a single intravenous or intraperitoneal dose of Compound 1 (25 mg/kg; 5 mL/kg) in […]/4.5% Glycocholate/5% EtOH formulation. Blood was collected into EDTA-containing tubes by cardiac puncture. Quantification of Compound 1 plasma levels was done by high performance liquid chromatographic-mass spectrometric method. Cmax values represent the maximum observed plasma concentration and AUC represents the area under the plasma concentration versus time curve (Table 6)."}},
  "data": [
    {"smiles": "CCC(C)c1cc2c(=O)c3ccc4c(OC)c5c(=O)c6c(O)ccc(O)c6c(=O)c5c(O)c4c3c(=O)c2c(=O)n1CC(=O)N1CC(C(=O)O)NC(=O)C1C", "note": "(stereo not shown) [Compound 1]", "values": [
      {"measurement": "IC50", "setting": "1218L (Bladder)", "value": 18.4, "unit": "µM"},
      {"measurement": "IC50", "setting": "T24 (Bladder)", "value": 5.15, "unit": "µM"},
      {"measurement": "IC50", "setting": "1752L (Pleuramesot.)", "value": 4.23, "unit": "µM"},
      {"measurement": "IC50", "setting": "462NL (Melanoma)", "value": 24.7, "unit": "µM"},
      {"measurement": "IC50", "setting": "394NL (Melanoma)", "value": 9.99, "unit": "µM"},
      {"measurement": "MIC", "setting": "[1]", "value": "4 to 16", "unit": "mg/L"},
      {"measurement": "ED50", "setting": "[2]", "value": "< 0.1", "unit": "mg/kg"},
      {"measurement": "GI50", "setting": "[3]", "value": 11.1, "unit": "µM"},
      {"measurement": "MIC", "setting": "[4]", "value": 0.06, "unit": "mg/L"},
      {"measurement": "AUC", "setting": "[5]; ip", "value": 649, "unit": "µg·h/mL"},
      {"measurement": "Cmax", "setting": "[5]; ip", "value": 111, "unit": "µg/mL"},
      {"measurement": "AUC", "setting": "[5]; iv", "value": 1180, "unit": "µg·h/mL"},
      {"measurement": "Cmax", "setting": "[5]; iv", "value": 227, "unit": "µg/mL"}
    ]}
  ]
}
